Test results published in patent US20080286355A1, “Protease Inhibitors For the Treatment of Digestive Pathologies” (priority 2004, published 2008).

Columns and labels:
Assay type in all cases: in vivo
male Swiss mice [1] = assay: Paracellular permeability in mouse colon (51Cr-EDTA) during intracolonic infusion of protease inhibitors; conditions: 5-hour intracolonic infusion 250 μl/h, 51Cr-EDTA from hours 3 to 5
Method: Six groups of ten male Swiss mice (25-30 g) were used for this study. The animals received a 5-hour intracolonic infusion (250 μl/h) of the different protease inhibitor solutions through a catheter inserted through the rectum and fixed at the base of the tail; ^51Cr-EDTA was added to the infusion from hours 3 to 5 (FIG. 2). At t=5 hours, the animals were sacrificed, the colons removed, and total radioactivity remaining in the body was taken as an indicator of paracellular permeability.

male Wistar rats [2] = assay: Rectal sensitivity to distention (abdominal contractions, EMG) after intracolonic trypsin; conditions: rat, distention at t=10 h, distention volumes 0.8, 1.2 and 1.6 ml, vs solvent control
Method: At time t=0, the animals received an intracolonic infusion of trypsin ([…]), a specific PAR-2 receptor activator at the dose of 20 units (group 1) or solvent (group 2). At time t=10 h after the intracolonic trypsin infusion, the animals were subjected to the rectal distention protocol.

male Swiss mice [3] = assay: Colon paracellular permeability in mice after trypsin, supernatant of colon contents and antibiotic cocktail; conditions: mouse, intracolonic trypsin 50 μL
Method: Groups of ten male Swiss mice (Janvier-France) weighing 25-30 g were used for this study. In baseline conditions, the effects on colon paracellular permeability of intracolonic infusion of trypsin (50 μL, 600 U) and of supernatant of colon contents taken from control mice and given by a 3-hour intracolonic infusion (250 μL/h) on one day (D1) or on two consecutive days (D2) were evaluated. The same infusions were then repeated after 12 days of treatment with oral an antibiotic cocktail (neomycin 2 mg/kg/day+ampicillin 1 mg/kg/day).

male Wistar rats [4] = assay: Colon mucosa permeability to 51Cr-EDTA, radioactivity in 24-hour urine of rats; conditions: rat; SLIGRL 0.05, 0.2 and 0.5 mg/rat into colon lumen at t=0; 10-hour intracolonic 51Cr-EDTA infusion; vs solvent
Method: Six groups of eight male Wistar rats (200-250 g) were used for this study. The animals were fitted with an indwelling intracolonic catheter in the proximal colon (3 cm from the caeco-colic junction). In these experiments, four groups of rats received a 10-hour intracolonic infusion of ^51Cr-EDTA ([…]). The animals were placed in separate cages and total 24-hour urine was collected. Radioactivity was measured in the urine to evaluate the permeability of the colon mucosa to ^51Cr-EDTA. Increasing doses of the PAR-2 activator peptide (SLIGRL) were injected in the colon lumen (groups 2, 3 and 4) at time t=0 (start of ^51Cr-EDTA infusion) at a dose of 0.05, 0.2 and 0.5 mg/rat. Group 1 received the solvent.

CNC(=O)[C@H](Cc1c[nH]c2ccccc12)NC(=O)[C@@H](CC(=O)NO)CC(C)C [galardin]
paracellular permeability (total radioactivity remaining in the body) (male Swiss mice [1]): significantly lower

trypsin
abdominal response to rectal distention (male Wistar rats [2]): significant decrease | increase in colon permeability after the antibiotic treatment (male Swiss mice [3]; 600 U after 12 days of antibiotic cocktail): disappeared | colon paracellular permeability, baseline conditions (male Swiss mice [3]; 600 U, normal mice): increase

SLIGRL
permeability to 51Cr-EDTA (recovery in 24-hour urine) (male Wistar rats [4]): dose-dependent increase

aprotinin
paracellular permeability (total radioactivity remaining in the body) (male Swiss mice [1]): significantly lower
